Data taken from patent US9815836B2, “Macrocyclic compounds as IRAK1/4 inhibitors and uses thereof” (Merck Patent GmbH, priority 2015, dated 2017).
Like-named read-outs stand apart in the source and are kept apart here.

Legend:
IRAK1 = IRAK1 (Homo sapiens (Human), UniProt P51617); test: IRAK1 enzymatic assay (ADP-Glo luminescence); type: biochemical
Protocol: In this assay, IRAK1 hydrolyses ATP and autophosphorylates. Measurement of IRAK-1 inhibition is performed in 384-well format based on luminescence assay (ADP-Glo™ Kinase Assay from Promega). Purified human recombinant IRAK1 ([…]) and serial diluted compounds in DMSO (range of concentration from 10 μM to 0.5 nM) or controls (1% DMSO) are incubated for 15 minutes at RT in assay buffer containing 50 mM Hepes pH 7.0, Fatty acid-free BSA 0.1%, Dithiothreitol (DTT) 2 mM, MgCl2 10 mM, EGTA 0.5 mM, Triton X-100 0.01%. The kinase reaction is then initiated by the addition of ATP at a concentration of 1μM. After 2 hours of incubation at RT, the reaction is stopped and the unconsumed ATP depleted by the addition of ADP-Glo™ Reagent according to supplier instructions. After 40 minutes of incubation at RT, the Kinase Detection Reagent is then added to the assay plate according to supplier instructions. After 20 minutes of incubation at RT, the luminescence signal is measured with a luminometer (PerkinElmer Envision or equivalent reader).

IRAK4 = IRAK4 (Homo sapiens (Human), UniProt Q9NWZ3); test: IRAK4 enzymatic assay (ADP-Glo luminescence); type: biochemical; details: human purified recombinant His-TEV-IRAK4 (1-460), ATP 2 μM, STK1-biotin peptide 300 nM
Protocol: IRAK4 is a human purified recombinant enzyme (His-TEV-IRAK4 (1-460)).
In this assay, IRAK4 hydrolyses ATP, autophosphorylates and phosphorylates a Serine/Threonine generic peptidic substrate (STK: 61ST1BLC from CisBio International). Measurement of IRAK-4 inhibition is performed in 384-well format based on a luminescence assay (ADP-Glo™ Kinase Assay from Promega). Purified human recombinant IRAK4 (0.3 μg/ml) and serial diluted compounds in DMSO (range of concentration from 10 μM to 0.5 nM) or controls (1% DMSO) are incubated for 15 minutes at RT in assay buffer containing 50 mM Hepes pH 7.0, Fatty acid-free BSA 0.1%, Dithiothreitol (DTT) 2 mM, MgCl2 10 mM, EGTA 0.5 mM, Triton X-100 0.01%, MnCl2 5 mM. The kinase reaction is then initiated by the addition of ATP (2 μM) and the peptidic substrate STK1-biotin peptide (300 nM). After 2 hours of incubation at RT, the reaction is stopped and the unconsumed ATP depleted by the addition of ADP-Glo™ Reagent according to supplier instructions. After 40 minutes of incubation at RT, the Kinase Detection Reagent is then added to the assay plate according to supplier instructions. After 20 minutes of incubation at RT, the luminescence signal is measured with a plate-reading luminometer (PerkinElmer Envision or equivalent reader).

[1] = human purified recombinant His-TEV-IRAK1 (194-712), ATP 1 μM, read-out: IRAK1 IC50

Sequence of IRAK4 (Q9NWZ3 whole entry): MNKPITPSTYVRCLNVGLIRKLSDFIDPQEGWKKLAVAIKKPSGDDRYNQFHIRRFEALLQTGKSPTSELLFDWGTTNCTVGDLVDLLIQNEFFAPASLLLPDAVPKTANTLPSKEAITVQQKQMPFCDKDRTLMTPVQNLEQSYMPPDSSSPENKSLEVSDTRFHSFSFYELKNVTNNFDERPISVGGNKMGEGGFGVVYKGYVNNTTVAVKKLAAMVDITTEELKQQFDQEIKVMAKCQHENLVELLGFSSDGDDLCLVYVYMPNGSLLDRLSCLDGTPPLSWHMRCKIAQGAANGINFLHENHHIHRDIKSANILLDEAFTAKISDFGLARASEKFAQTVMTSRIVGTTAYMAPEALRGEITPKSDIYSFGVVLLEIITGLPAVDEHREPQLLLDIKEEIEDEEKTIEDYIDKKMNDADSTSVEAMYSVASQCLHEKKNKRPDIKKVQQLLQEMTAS
Sequence of IRAK1 (P51617 194-712): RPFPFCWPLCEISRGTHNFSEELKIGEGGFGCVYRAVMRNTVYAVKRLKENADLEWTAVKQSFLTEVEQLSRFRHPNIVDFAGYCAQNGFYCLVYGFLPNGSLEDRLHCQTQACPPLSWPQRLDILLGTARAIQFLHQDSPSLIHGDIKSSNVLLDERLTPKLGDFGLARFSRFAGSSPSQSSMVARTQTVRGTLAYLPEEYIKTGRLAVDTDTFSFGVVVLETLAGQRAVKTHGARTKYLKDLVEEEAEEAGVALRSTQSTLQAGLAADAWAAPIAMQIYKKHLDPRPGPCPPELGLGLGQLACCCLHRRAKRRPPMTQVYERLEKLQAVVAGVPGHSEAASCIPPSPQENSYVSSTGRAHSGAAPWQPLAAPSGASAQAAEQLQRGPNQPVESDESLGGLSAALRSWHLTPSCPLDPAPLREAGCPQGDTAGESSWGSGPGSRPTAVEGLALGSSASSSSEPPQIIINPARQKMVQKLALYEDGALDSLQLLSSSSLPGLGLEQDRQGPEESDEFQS

Row | IC50 (IRAK1; [1]) [nM] | Structure (SMILES) | ring closure, yield after HPLC (the molecule shown is the open-chain precursor, multicomponent bond, 20-membered ring, Cs2CO3/KI, microwave, DMSO, 22.0 mM, 110.0 °C) [%] | IC50 (IRAK4) [nM] | ring closure, yield after HPLC (from NCCOCCn1cc(-c2cccc(C(=O)Nc3cn(C4CCOCC4)nc3C(=O)[O-])c2)cn1, amide bond, 17-membered ring, BOP/DIEA, DMF, 20.7 mM) [%] | IC50 (IRAK1) [nM]
1 |  | Cn1cc(NC(=O)c2cccc(-c3cnn(CCCl)c3)n2)c(C(=O)NC2CCNC[C@H]2O)n1 (stereo partly drawn) | 23.6 |  |  | 
2 | > 5000 | O=C1Nc2cn(C3CCOCC3)nc2C(=O)NCCOCCn2cc(cn2)-c2cccc1c2 [Compound 20, 15-(oxan-4-yl)-8-oxa-4,5,11,14,15,18-hexaazatetracyclo[18.3.1.1^2,^5.0^13,^1^7]pentacosa-1(23),2(25),3,13,16,20(24),21-heptaene-12,19-dione] |  | > 5000 | 21.8 | 
3 |  | O=C1Nc2cn(C3CCN(CCO)CC3)nc2C(=O)NCCCCCCn2cc(cn2)-c2cccc1n2 [Compound 22, 16-[1-(2-hydroxyethyl)piperidin-4-yl]-4,5,12,15,16,19,25-heptaazatetracyclo[19.3.1.1^2,^5.0^1^4,^1^8]hexacosa-1 (24),2(26),3,14,17,21(25),22-heptaene-13,20-dione] |  | < 100 |  | 100 to 1000
4 |  | CN(C)CCN1CCC(n2cc3c(n2)C(=O)NCCCCCCn2cc(cn2)-c2cccc(n2)C(=O)N3)CC1 [Compound 23, 6-{1-[2-(dimethylamino)ethyl]piperidin-4-yl}-4,5,12,15,16,19,25-heptaazatetracyclo[19.3.1.1^2,^5.0^1^4,^1^8]hexacosa-1(24),2(26),3,14,17,21(25),22-heptaene-13,20-dione] |  | < 100 |  | 100 to 1000
5 |  | O=C1Nc2cn(C3CCOCC3)nc2C(=O)NCCCCCCn2cc(cn2)-c2cccc1c2 [Compound 24, 16-(oxan-4-yl)-4,5,12,15,16,19-hexaazatetracyclo[19.3.1.1^2,^5.0^1^4,^1^8]hexacosa-1(24),2(26),3,14,17,21 (25),22-heptaene-13,20-dione] |  | < 100 |  | 100 to 1000
6 |  | Cn1cc2c(n1)C(=O)NCC/C=C\CCn1cc(cn1)-c1cccc(n1)C(=O)N2 [Compound 27, (8Z)-16-methyl-4,5,12,15,16,19,25-heptaazatetracyclo[19.3.1.1^2,^5.0^1^4,^1^8]hexacosa-1(24),2(26),3,8,14,17,21(25),22-octaene-13,20-dione] |  | < 100 |  | 100 to 1000
7 |  | Cn1cc2c(n1)C(=O)NCC/C=C/CCn1cc(cn1)-c1cccc(n1)C(=O)N2 [Compound 28, (8E)-16-methyl-4,5,12,15,16,19,25-heptaazatetracyclo[19.3.1.1^2,^5.0^1^4,^1^8]hexacosa-1(24),2(26),3,8,14,17,21(25),22-octaene-13,20-dione] |  | < 100 |  | 100 to 1000
8 |  | Cn1cc2c(n1)C(=O)NC/C=C/CCCn1cc(cn1)-c1cccc(n1)C(=O)N2 [Compound 29, (9E)-16-methyl-4,5,12,15,16,19,25-heptaazatetracyclo[19.3.1.1^2,^5.0^1^4,^1^8]hexacosa-1(24),2(26),3,9,14,17,21(25),22-octaene-13,20-dione] |  | < 100 |  | 100 to 1000
9 |  | Cn1cc2c(n1)C(=O)NC/C=C\CCCn1cc(cn1)-c1cccc(n1)C(=O)N2 [Compound 30, (9Z)-16-methyl-4,5,12,15,16,19,25-heptaazatetracyclo[19.3.1.1^2,^5.0^1^4,^1^8]hexacosa-1(24),2(26),3,9,14,17,21(25),22-octaene-13,20-dione] |  | < 100 |  | 100 to 1000
10 |  | Cn1cc2c(n1)C(=O)NCC(O)C(O)CCCn1cc(cn1)-c1cccc(n1)C(=O)N2 (stereo not drawn) [Compound 31, 9,10-dihydroxy-16-methyl-4,5,12,15,16,19,25-heptaazatetracyclo[19.3.1.1^2,^5.0^1^4,^1^8]hexacosa-1(24),2(26),3,14,17,21(25),22-heptaene-13,20-dione] |  | < 100 |  | 100 to 1000
11 |  | Cn1cc2c(n1)C(=O)NCCCC(O)C(O)Cn1cc(cn1)-c1cccc(n1)C(=O)N2 (stereo not drawn) [Compound 32, 7,8-dihydroxy-16-methyl-4,5,12,15,16,19,25-heptaazatetracyclo[19.3.1.1^2,^5.0^1^4,^1^8]hexacosa-1(24),2(26),3,14,17,21(25),22-heptaene-13,20-dione] |  | < 100 |  | 100 to 1000
12 |  | Cn1cc2c(n1)C(=O)NCCC(O)C(O)CCn1cc(cn1)-c1cccc(n1)C(=O)N2 (stereo not drawn) [Compound 33, 8,9-dihydroxy-16-methyl-4,5,12,15,16,19,25-heptaazatetracyclo[19.3.1.1^2,^5.0^1^4,^1^8]hexacosa-1(24),2(26),3,14,17,21(25),22-heptaene-13,20-dione] |  | < 100 |  | 100 to 1000
13 |  | Cn1cc2c(n1)C(=O)NCCC/C=C\Cn1cc(cn1)-c1cccc(n1)C(=O)N2 [Compound 37, (7Z)-16-methyl-4,5,12,15,16,19,25-heptaazatetracyclo[19.3.1.1^2,^5.0^1^4,^1^8]hexacosa-1(24),2(26),3,7,14,17,21(25),22-octaene-13,20-dione] |  | < 100 |  | 100 to 1000
14 | < 100 | Cn1cc2c(n1)C(=O)NCCCC#CCn1cc(cn1)-c1cccc(n1)C(=O)N2 [Compound 38, 16-methyl-4,5,12,15,16,19,25-heptaazatetracyclo[19.3.1.1^2,^5.0^1^4,^1^8]hexacosa-1(24),2(26),3,14,17,21 (25),22-heptaen-7-yne-13,20-dione] |  | < 100 |  | 

Row | Structure (SMILES) | IC50 (IRAK1; [1]) [nM] | ring closure, yield after HPLC (the molecule shown is the open-chain precursor, multicomponent bond, 20-membered ring, Cs2CO3/KI, microwave, DMSO, 22.0 mM, 110.0 °C) [%] | IC50 (IRAK4) [nM] | ring closure, yield after HPLC (from NCCOCCn1cc(-c2cccc(C(=O)Nc3cn(C4CCOCC4)nc3C(=O)[O-])c2)cn1, amide bond, 17-membered ring, BOP/DIEA, DMF, 20.7 mM) [%] | IC50 (IRAK1) [nM]
15 | Cn1cc2c(n1)C(=O)NCCC/C=C/Cn1cc(cn1)-c1cccc(n1)C(=O)N2 [Compound 25, (7E)-16-methyl-4,5,12,15,16,19,25-heptaazatetracyclo[19.3.1.1^2,^5.0^1^4,^1^8]hexacosa-1(24),2(26),3,7,14,17,21(25),22-octaene-13,20-dione] | < 100 |  | < 100 |  | 
